According to paper PMC9658316, “Discovery of Mitochondrial Complex I Inhibitors as Anticancer and Radiosensitizer Drugs Based on Compensatory Stimulation of Lactate Release” (Cancers, 2022):

Legend:
mitochondrial complex I = mitochondrial complex I (Mus musculus, UniProt P03888+Q91WD5+Q9DC70); assay: Seahorse OCR in permeabilized CT26 cancer cells, mitochondrial complex I inhibition (Assay #2); type: cell-based; conditions: for pattern of OCR inhibition activity relative to aa: 1 and 10 µM; for IC50: pyruvate/malate, tested at 1 and 10 µM, read-out: OCR inhib. (IC50)
Method: (§1) L-lactate concentration was measured in a semi-automated manner using CMA Microdialysis AB enzymatic assay and a CMA 600 analyzer (Aurora Borealis, Schoonebeek, The Netherlands) as previously described. Briefly, cells (2 × 10^5 cells per well; 3 wells/condition) were seeded in 12-well plates with 2 mL of their routine culture medium. After 24 h, medium was replaced by 500 µL of DMEM containing 10 mmol/L D-glucose and supplemented with 2 mmol/L L-glutamine and 10% dialyzed FBS (Sigma-Aldrich), in the presence of the compounds or vehicle (DMSO). The initial concentration of L-lactate in the experimental medium was also assessed by including control wells containing only cell culture medium (no cells) on each plate. After incubation for 24 h, extracellular media were collected and deproteinized by centrifugation (15 min, 10,000 rpm, 4 °C) in 10 kDa cut-off filter tubes (VWR, Avantor, Leuven, Belgium). Differences in L-lactate concentrations between control and treated cells were calculated and normalized by the protein content in each well and expressed in µmol/h/mg protein. Oxygen-consumption rate (OCR) was measured using the Seahorse XF96 plate reader as previously reported. Briefly, cells (2 × 10^4 cells per well) were first permeabilized with 1 nM Seahorse XF Plasma Membrane Permeabilizer (#102504-100; Agilent, Machelen, Belgium) and respiration was stimulated by adding 10 mM pyruvate, 5 mM malate, and 2 mM ADP. After baseline OCR determination, compounds were added (to inhibit complex I) followed by 10 mM succinate to fuel complex II and rescue the electron transport chain. In some experiments, the effects of selected hits on basal OCR were evaluated in intact cells (including in the presence of MCT1/2 inhibitor AR-C155858 [29] or methylpyruvate). OCR data were normalized according to protein content in each well.
(A–D). Graphs depict changes in O2 consumption rate (OCR) measured with the Seahorse technology on permeabilized CT26 cancer cells upon successive addition of pyruvate/malate, the indicated inhibitor and succinate. […] (E,F).

[1] = tested on: colorectal CT26 cancer cells; assay: Compound-induced L-lactate release (Assay #1), CT26; type: cell-based, mouse; conditions: 10 µM; for [LAC] increase: 24 h exposure, L-lactate secretion above basal release; for L-lactate release compared with reference compound aa: 24 h
Method: as §1
Figure 3 Compound-induced L-lactate release (Assay #1). Culture medium was collected after 24 h exposure to the indicated compounds (10 µM) and the amount of extracellular L-lactate release was determined in a semi-automated manner; dose-dependent effects of complex I inhibitor IACS are shown on the right (shaded bars). Bar graph depicts the extent of L-lactate secretion above the basal release as determined in the absence of any compound (n = 3, ** p < 0.01 for increased L-lactate release vs. reference compound aa).

[2] = tested on: breast cancer 4T1 cancer cells; assay: Compound-induced L-lactate release (Assay #1), 4T1; type: cell-based, mouse; conditions: 4T1 cells, 24 h
Method: L-lactate concentration was measured in a semi-automated manner using CMA Microdialysis AB enzymatic assay and a CMA 600 analyzer (Aurora Borealis, Schoonebeek, The Netherlands) as previously described. Briefly, cells (2 × 10^5 cells per well; 3 wells/condition) were seeded in 12-well plates with 2 mL of their routine culture medium. After 24 h, medium was replaced by 500 µL of DMEM containing 10 mmol/L D-glucose and supplemented with 2 mmol/L L-glutamine and 10% dialyzed FBS (Sigma-Aldrich), in the presence of the compounds or vehicle (DMSO). The initial concentration of L-lactate in the experimental medium was also assessed by including control wells containing only cell culture medium (no cells) on each plate. […] Differences in L-lactate concentrations between control and treated cells were calculated and normalized by the protein content in each well and expressed in µmol/h/mg protein. Oxygen-consumption rate (OCR) was measured using the Seahorse XF96 plate reader as previously reported. […] In some experiments, the effects of selected hits on basal OCR were evaluated in intact cells (including in the presence of MCT1/2 inhibitor AR-C155858 [29] or methylpyruvate). […]
Suppl. […] Culture medium was collected after 24h exposure to the indicated compounds and lactate content was determined in a semi-automated manner. […]

[3] = tested on: human cervix Siha cancer cells; assay: Growth inhibitory effects on human cancer cells (Presto Blue), SiHa vs MDA-MB-231; type: cell-based; conditions: 1 µM
Text: (§2) Mouse colorectal CT26 and breast 4T1 cancer cells as well as human cervix cancer SiHa and breast MDA-MD-231 cancer cells were acquired from ATCC where they are regularly authenticated by short tandem repeat profiling. They were stored according to the supplier’s instructions and used within 6 months after resuscitation of frozen aliquots. Cancer cells were maintained in DMEM (Life Technologies, ThermoFischer scientific, Merebelke, Belgium) supplemented with 10% heat-inactivated FBS. All cell lines were tested for mycoplasma contamination with the MycoAlert™ Mycoplasma Detection kit (#LT07-318; Lonza, Verviers, Belgium) before being used. Cell integrity was determined by the Trypan Blue exclusion method (using Bürker chambers) while cell growth was assessed by using the Presto Blue reagent (Life Technologies) according to manufacturer’s instructions.
Suppl. Figure S3. Growth inhibitory effects of hit compounds on human cancer cells. MDA-M B-231 (A) and Siha (B) cancer cells were exposed to 100 nM IACS or 1 µM aa, ag, aj and au compounds; data represent the reduced extent (expressed as %) of cell viability (determined with Presto Blue) when compared with vehicle conditions (n=3).
(also on this page, place not known: 60Growth inhibitory effects (%) MDA-MB-231 aa au 60Growth inhibitory effects (%))

breast 4T1 cancer cells = assay: Growth inhibitory effects on cultured 4T1 cells (Presto Blue); type: cell-based, mouse; conditions: 4T1 monolayers, 1 µM, 72 h, compared with CT26
Text: as §2
(§3) Figure 4 Mitochondrial complex I activity inhibition (Assay #2). (A–D). Graphs depict changes in O2 consumption rate (OCR) measured with the Seahorse technology on permeabilized CT26 cancer cells upon successive addition of pyruvate/malate, the indicated inhibitor and succinate. OXPHOS I inhibitor IACS was used as a control in the experiments testing reference compound aa (A), and compound aa (10µM) was used as reference for testing au, ah and at derivatives (B–D) (n = 6 per compound). (E,F). Growth inhibitory effects of cultured CT26 (E) and 4T1 […] cancer cells exposed to 100 nM IACS or 1 µM aa, ag, aj and au compounds for 72 h; data represent the reduced extent (expressed as %) of cell viability (determined with Presto Blue) when compared with vehicle conditions (n = 3).

intact CT26 cancer cells = assay: Seahorse basal OCR and ECAR in intact (non-permeabilized) CT26 cancer cells; type: cell-based, mouse; conditions: non-permeabilized CT26 cells, 10 µM
Method: as §1
Since other lactate transporters could be involved, we also used methylpyruvate which can bypass the need for a mitochondrial carrier and mimic the result of lactate oxidation by a mitochondrial LDH or ensure the delivery of pyruvate into the mitochondria matrix. […] In the same experiments carried out on non-permeabilized cancer cells, the extent of basal OCR inhibition in response to 10 µM aa was similar to that observed with 100 nM IACS-010759 (−52 ± 5% and −45 ± 6%, respectively) and mirrored by an increase in extracellular acidification rate (ECAR) (+36 ± 11% and +29 ± 9%, respectively).

CT26 colon cancer cells = assay: Growth inhibitory effects on cultured CT26 cells (Presto Blue); type: cell-based, mouse; conditions: CT26 monolayers, 1 µM, 72 h
Text: as §2, §3

[4] = Cell integrity by Trypan blue exclusion; type: cell-based; conditions: cancer cells (cell line not specified); 24 h after exposure; read-out: viable cancer cells (Trypan blue exclusion)
Text: as §2
Still, to support the anticancer potential of complex I inhibition, we also examined the cytotoxic effects of longer exposure of intact cancer cells to reference compound aa and hit compounds ag, aj and au. […] While the nature of cell death induced by aa derivatives is beyond the scope of this manuscript, alteration in mitochondria fitness and capacity to buffer calcium could be involved as previously reported.

[5] = tested on: cancer cells from dissociated spheroids; assay: Regrowth of cells from dissociated spheroids after irradiation and compound; type: cell-based, mouse; conditions: plated for 14 days, compared with aa
Text: Finally, to document the expected re-oxygenation, spheroids treated with compounds aa, aj and am were exposed to the hypoxia probe pimonidazole.
(§4) Figure 6 Radiosensitizing effects of selected complex I inhibitors. (A) Extent of surviving cancer cells post-exposure to radiotherapy and the indicated compounds (n = 3, * p < 0.05, ** p < 0.01 vs. vehicle condition).

3D tumor CT26 spheroids [6] = assay: Radiosensitizing effects in 3D tumor spheroids (6 Gy irradiation); type: cell-based, mouse; conditions: 6 Gy irradiation at day 4, day 10 vs day 3
Method: (§5) Spheroids were prepared by seeding 1500 cells/well in Ultra-Low Attachment 96-well plate (Corning, Merck, Hoeilaart, Belgium) in DMEM supplemented with 10% heat-inactivated FBS. Inhibitors were added on day 4 (mean diameter of spheroids: 300 µm) and renewed every 3 days. Spheroid growth was monitored using live-cell phase contrast microscope (Axio Observer, Zeiss, Zaventem, Belgium); spheroid area, density and morphology were measured using ImageJ software. Confocal fluorescence microscopy (LSM510, Zeiss, Zaventem, Belgium) was used for detecting pimonidazole immunostaining as previously reported. Spheroids from a same experiment were imaged with the same gain and exposure settings. In some experiments, OXPHOSi treatment was combined with irradiation using a ^137Cs γ-irradiator (IBL-637; CIS-BioInternational, Saclay, France) as previously described.
(§6) Figure 5 Inhibition of 3D tumor spheroid growth (Assay #3). […] Drug exposure without (A) or with irradiation (B) was associated with a significant reduction in spheroid sizes vs. untreated spheroids (not shown).
We also took advantage of 3D tumor spheroids to evaluate whether they could radiosensitize tumors upon O2 sparing resulting from inhibition of O2 consumption. […]

3D tumor CT26 spheroids [7] = assay: Inhibition of 3D tumor spheroid growth (Assay #3); type: cell-based, mouse; conditions: for 3D growth inhib. (%): 3D tumor CT26 spheroids; for spheroid growth inhibition compared with reference compound aa: CT26 spheroids, day 10
Method: as §5, §6

3D tumor CT26 spheroids [8] = assay: Pimonidazole immunostaining of hypoxia in spheroids; type: cell-based, mouse; conditions: treated spheroids
Method: as §5, §4

SMILES | pattern of OCR inhibition activity relative to aa (mitochondrial complex I) | IC50 (mitochondrial complex I) [µM] | [LAC] increase [1] [µmol/h/mg] | L-lactate release compared with aa compound [2] | antiproliferative effects in Siha compared with MDA-MB-231 cells [3] | growth inhibitory activity (breast 4T1 cancer cells) | increase in extracellular acidification rate (ECAR) (intact CT26 cancer cells) | concentration at which complex I-dependent OCR reduction was detectable (mitochondrial complex I) [µM] | reversal of OCR inhibition upon succinate addition (mitochondrial complex I; 10 mM succinate) | cytotoxic / growth inhibitory effects (CT26 colon cancer cells) | viability at 24 h [4] [%] | ability of cancer cells to re-grow after irradiation and compound [5] | change in spheroid size with irradiation (3D tumor CT26 spheroids [6]) | L-lactate release compared with reference compound aa [1] | 3D growth inhib. (%) (3D tumor CT26 spheroids [7]) | spheroid growth inhibition compared with reference compound aa (3D tumor CT26 spheroids [7]) | reduction of hypoxia (pimonidazole) (3D tumor CT26 spheroids [8])
NCc1cn(Cc2cc(Cl)c(C(=O)c3ccc(Cl)cc3)c(Cl)c2)nn1 [at] | inactive | > 10 | ~0 | less potent | – | – | – | – | – | – | – | – | – | – | – | – | –
NC(=O)c1nnn(Cc2cc(Cl)c(C(=O)c3ccc(Cl)cc3)c(Cl)c2)c1N [compound aa, carboxyamidotriazole, reference compound] | – | – | ~2 | – | Larger antiproliferative effects | more significant growth inhibitory activity | +36 ± 11% | 1 | full reversal of OCR inhibition | very limited effects | 90.9 ± 5.1 | – | – | – | – | – | –
NC(=O)c1nnn(Cc2cc(Cl)c(C(=O)C3CCCCC3)c(Cl)c2)c1N [compound aj] | – | – | ~4 | – | Larger antiproliferative effects | more significant growth inhibitory activity | – | – | – | very limited effects | – | much lesser ability to re-grow | net reduction in the spheroid size | more potent inducers of L-lactate release | >50 | significantly more active than reference compound aa | reduced hypoxia to a larger extent than compound aa
NC(=O)c1nnn(Cc2cc(Cl)c(Cc3ccc(Cl)cc3)c(Cl)c2)c1N [compound am] | – | ~10 | ~4 | – | – | – | – | – | – | – | – | much lesser ability to re-grow | net reduction in the spheroid size | more potent inducers of L-lactate release | >50 | significantly more active than reference compound aa | reduced hypoxia to a larger extent than compound aa
COC(=O)c1cn(Cc2cc(Cl)c(C(=O)c3ccc(Cl)cc3)c(Cl)c2)nn1 [compound au] | equiactive | – | ~4 | more | Larger antiproliferative effects | more significant growth inhibitory activity | – | – | – | very limited effects | – | – | – | more potent inducers of L-lactate release | <25 | significantly lesser growth inhibitory effects than compound aa | –
